Test results as given in patent publication US20120088667A1, “SAFENING AGENT” (priority 2009, published 2012).
Like-named read-outs stand apart in the source and are kept apart here.

Legend:
PEA cv Ragtime [1] = assay: Root nodulation and safening, pea, compost of normal pH (Example 7.6); details: compost of normal pH (6.5); for Nodules Per Plant (V1): V1, no inoculum; for Nodulation Score (0-9) (V1) / Phyto-Toxicity Score (0-9) (V1) / Vigour Score (0-9) (V1): V1, score 0-9
Text: (§1) The safener/safening system and the fertiliser were applied to the crops either simultaneously or sequentially.
(§2) Co=100% Cobalt Sulphate (20 g per litre and per hectare). FF1=20 g per litre Cobalt Sulphate (as per Co above) plus “Miracle-Gro” at xl recommended rate (applied at 15 g per 2.5 sq metres). Miracle-Gro contains: 24% N, 4% P, 13% K, plus 0.02% B, 0.03% Cu, 0.19% Fe, 0.05% Mn, 0.001% Mo and 0.03% Zn. FF2=20 g per litre Cobalt Sulphate plus Miracle-Gro at ×2 recommended rate. SAF: at least one from class (f) each at <3 g/l, plus at least one from class (c).
PEA—TRIAL 7.6—cv Ragtime. Dates as per Example 7.5 above, but sown in compost of normal pH (6.5). […] No inoculum was applied.

NAVY BEAN cv Mogex [2] = assay: Root nodulation and safening, navy bean, compost of low pH (Example 7.3); details: compost of low pH (5.0-5.5); for Nodules Per Plant (V1): V1, +28 days after spraying, no inoculum; for Nodulation Score (0-9) (V1) / Phyto-Toxicity Score (0-9) (V1) / Vigour Score (0-9) (V1): V1, score 0-9
Text: as §1, §2
NAVY BEAN cv Mogex. Scored/Counted+28 Days after Spraying. Sown in Compost of low pH (5.0-5.5) on 29 Apr. 2008. Spray Date (VC)=27 May, V1 Date=16 June. Scored/Measured on 11 July. Each treatment represents the mean value of 12 plants, within four replicates. No inoculum applied.

Winter Barley cv Saffron = details: for Vigour (0-9) (9 = Most Vigour) + 14 days: score 0-9, 9 = Most Vigour; for Vigour (0-9) + 28 Days: score 0-9, +28 days; for Phytotoxicity (0-9) (0 = Dead) + 14 Days / Phytotoxicity (0-9) (0 = Dead) + 28 Days: score 0-9, 0 = Dead
Text: (§3) The safening system and the fungicide were applied to the crops either simultaneously or sequentially, either as foliar applications or as a seed treatment.
(§4) Winter Barley: cv Saffron, sown 27 May 2008, at four/five seeds per 9 cm pot, sown in standard multi-purpose compost of pH 6.5. Date of spraying: 23 July; Dates of measurement/scoring: 30 July, 14 August, 22 August. Sprayed: mid-tillering phase (GS23). Winter Wheat: cv Limerick, sown 4 Jun. 2008, at four/five seeds per 9 cm pot, sown in standard multi-purpose compost of pH 6.5. Date of spraying: 23 July; Dates of measurement/scoring: 30 July, 14 August, 23 August. Sprayed: mid-tillering phase (GS23). Maize: cv Sundance, sown 25 May 2008, at 10 seeds per 25 cm pot, in John Innes No 1 compost. Date of measurement/assessment: 15 June. Seed treatment trial. Randomised block, mean of five replicates.
(§5) SAF: at least one from class (f) each at <3 g/l, plus at least one from class (c).

Winter Wheat cv Limerick = test system: Winter Wheat cv Limerick
Text: as §3, §4, §5

Soybean = assay: Root nodulation and safening, soybean, compost of low pH (Example 7.1); details: Soybean, compost of low pH (5.0-5.5); for Nodules Per Plant (V1): V1, +28 days after spraying, mean of 12 plants; for Nodulation Score (0-9) (V1) / Phyto-Toxicity Score (0-9) (V1) / Vigour Score (0-9) (V1): V1, score 0-9; for Nodules Per Plant (VC): +28 days after spraying
Text: as §1, §2
Scored/Counted+28 Days After Spraying. Sown in Compost of low pH (5.0-5.5) on 1 May 2008. Spray Date (VC)=4 June, V1 Date=20 June. Scored/Measured on 17 July. […] Seed density approx 110 kg/ha. Soybean treated with standard inoculant at sowing.

Glycine max (Soybean) = assay: Root nodulation and safening, soybean, compost of normal pH (Example 7.2); details: compost of normal pH (6.5); for Nodules Per Plant (V1): V1, mean of 12 plants; for Nodulation Score (0-9) (V1) / Phyto-Toxicity Score (0-9) (V1) / Vigour Score (0-9) (V1): V1, score 0-9
Text: as §1, §2
Dates as per Example 7.1 above, but sown in compost of normal pH (6.5). Each treatment represents the mean values for 12 plants, within four replicates. Sowing density 110 kg/ha. Standard inoculant applied at sowing.

NAVY BEAN cv Mogex [3] = assay: Root nodulation and safening, navy bean, compost of normal pH (Example 7.4); details: compost of normal pH (6.5); for Nodules Per Plant (V1): V1, +28 days after spraying, no inoculum; for Nodulation Score (0-9) (V1) / Phyto-Toxicity Score (0-9) (V1) / Vigour Score (0-9) (V1): V1, score 0-9
Text: as §1, §2
NAVY BEAN cv Mogex. Scored/Counted+28 Days after Spraying. Dates as per Example 7.3 Above, but sown in compost of normal pH (6.5). Each treatment represents the mean value from 12 plants, within four replicates. No inoculum applied.

PEA cv Ragtime [4] = assay: Root nodulation, rooting and safening, pea, compost of low pH (Examples 7.5 and 7.7)
Text: as §1, §2
PEA—TRIAL 5—cv Ragtime. Scored/Counted+28 Days after Spraying. Sown in Compost of Low pH (5.0-5.5) on 28 Apr. 2008. Spray Date (VC)=26 May, V1 Date=14 June. Scored/Measured on 9 July. […] No inoculum applied.
Sowing details etc as per Example 7.5.

[5] = Table 2.1, fungicide Prochloraz
[6] = Table 2.2, fungicide Flutriafol
[7] = Table 2.3, fungicides Fenpropidin and Flutriafol
[8] = Table 2.4, winter wheat, fungicide Prochloraz, score 0-9, 9 = Most Vigour
[9] = Table 2.5, winter wheat, fungicide Flutriafol, score 0-9, 9 = Most Vigour
[10] = score 0-9, 9 = most vigour, foliar, fungicides Fenpropidin and Flutriafol, Table 2.6
[11] = compost of low pH (5.0-5.5), V1, +28 days after spraying, no inoculum
[12] = compost of low pH (5.0-5.5), V1, score 0-9
[13] = low pH compost, application at V1 (data from Example 7.5)
[14] = low pH compost, application at V1, 0-9 scale
[15] = Table 2.4, winter wheat, fungicide Prochloraz, score 0-9, 0 = Dead
[16] = Table 2.5, winter wheat, fungicide Flutriafol, score 0-9, 0 = Dead
[17] = score 0-9, 0 = dead, foliar, fungicides Fenpropidin and Flutriafol, Table 2.6

## CC(=O)Nc1ccc(O)cc1 [AC, N-(4-hydroxypheyl)acetamide, reference compound]
PEA cv Ragtime [1]
  Nodules Per Plant (V1): 15.4
  Nodulation Score (0-9) (V1): 4.9
  Phyto-Toxicity Score (0-9) (V1): 7.0
  Vigour Score (0-9) (V1): 6.7
  Nodules Per Plant (VC): 16.4
  Nod Score (0-9) (VC): 5.0
NAVY BEAN cv Mogex [2]
  Nodules Per Plant (V1): 19.3
  Nodulation Score (0-9) (V1): 3.1
  Phyto-Toxicity Score (0-9) (V1): 5.6
  Vigour Score (0-9) (V1): 6.0
  Nodules Per Plant (VC): 22.1
  Nod Score (0-9) (VC): 3.5
Winter Barley cv Saffron; [5]
  Vigour (0-9) (9 = Most Vigour) + 14 days: 7.0
  Vigour (0-9) + 28 Days: 8.0
Winter Barley cv Saffron; [6]
  Vigour (0-9) (9 = Most Vigour) + 14 days: 7.0
  Vigour (0-9) + 28 Days: 8.0
Winter Barley cv Saffron; [7]
  Vigour (0-9) (9 = Most Vigour) + 14 days: 7.0
  Vigour (0-9) + 28 Days: 8.0
Winter Wheat cv Limerick; [8]
  Vigour (0-9) (9 = Most Vigour) + 14 days: 7.0
Winter Wheat cv Limerick; [9]
  Vigour (0-9) (9 = Most Vigour) + 14 days: 7.0
Winter Wheat cv Limerick; [10]
  Vigour (0-9) (9 = Most Vigour) + 14 days: 7.0
Soybean
  Nodules Per Plant (V1): 26.1
  Nodulation Score (0-9) (V1): 5.0
  Phyto-Toxicity Score (0-9) (V1): 8.0
  Vigour Score (0-9) (V1): 6.0
  Nodules Per Plant (VC): 28.1
  Nod Score (0-9) (VC): 5.3
Glycine max (Soybean)
  Nodules Per Plant (V1): 29.9
  Nodulation Score (0-9) (V1): 5.5
  Phyto-Toxicity Score (0-9) (V1): 8.0
  Vigour Score (0-9) (V1): 6.5
  Nodules Per Plant (VC): 32.0
  Nod Score (0-9) (VC): 5.7
NAVY BEAN cv Mogex [3]
  Nodules Per Plant (V1): 29.5
  Nodulation Score (0-9) (V1): 4.8
  Phyto-Toxicity Score (0-9) (V1): 7.0
  Vigour Score (0-9) (V1): 7.0
  Nodules Per Plant (VC): 32.1
  Nod Score (0-9) (VC): 5.0
PEA cv Ragtime [4]; [11]
  Nodules Per Plant (V1): 16.7
PEA cv Ragtime [4]; [12]
  Nodulation Score (0-9) (V1): 5.0
  Phyto-Toxicity Score (0-9) (V1): 5.2
  Vigour Score (0-9) (V1): 5.1
PEA cv Ragtime [4]; compost of low pH (5.0-5.5)
  Nodules Per Plant (VC): 17.3
  Nod Score (0-9) (VC): 5.2
PEA cv Ragtime [4]; [13]
  Nodules Per Plant (V1): 16.7
PEA cv Ragtime [4]; [14]
  Nodulation Score (0-9) (V1): 5.0
  Phyto-Toxicity Score (0-9) (V1): 5.2
  Rooting Score (0-9) (V1): 4.2

## Nc1ccccc1C(=O)O [AN, anthranilic acid]
PEA cv Ragtime [1]
  Nodules Per Plant (V1): 17.2
  Nodulation Score (0-9) (V1): 5.2
  Phyto-Toxicity Score (0-9) (V1): 7.0
  Vigour Score (0-9) (V1): 6.9
  Nodules Per Plant (VC): 17.1
  Nod Score (0-9) (VC): 5.2
NAVY BEAN cv Mogex [2]
  Nodules Per Plant (V1): 20.9
  Nodulation Score (0-9) (V1): 3.3
  Phyto-Toxicity Score (0-9) (V1): 6.0
  Vigour Score (0-9) (V1): 6.0
  Nodules Per Plant (VC): 23.4
  Nod Score (0-9) (VC): 3.8
Winter Barley cv Saffron; [5]
  Phytotoxicity (0-9) (0 = Dead) + 14 Days: 7.5
  Phytotoxicity (0-9) (0 = Dead) + 28 Days: 8.0
  Vigour (0-9) (9 = Most Vigour) + 14 days: 7.0
  Vigour (0-9) + 28 Days: 8.0
Winter Barley cv Saffron; [6]
  Phytotoxicity (0-9) (0 = Dead) + 14 Days: 7.5
  Phytotoxicity (0-9) (0 = Dead) + 28 Days: 8.0
  Vigour (0-9) (9 = Most Vigour) + 14 days: 7.0
  Vigour (0-9) + 28 Days: 8.0
Winter Barley cv Saffron; [7]
  Phytotoxicity (0-9) (0 = Dead) + 14 Days: 7.5
  Phytotoxicity (0-9) (0 = Dead) + 28 Days: 8.0
  Vigour (0-9) (9 = Most Vigour) + 14 days: 7.0
  Vigour (0-9) + 28 Days: 8.0
Winter Wheat cv Limerick; [15]
  Phytotoxicity (0-9) (0 = Dead) + 14 Days: 7.5
  Phytotoxicity (0-9) (0 = Dead) + 28 Days: 8.0
Winter Wheat cv Limerick; [8]
  Vigour (0-9) (9 = Most Vigour) + 14 days: 7.0
Winter Wheat cv Limerick; Table 2.4, winter wheat, fungicide Prochloraz, score 0-9
  Vigour (0-9) + 28 Days: 8.0
Winter Wheat cv Limerick; [16]
  Phytotoxicity (0-9) (0 = Dead) + 14 Days: 7.5
  Phytotoxicity (0-9) (0 = Dead) + 28 Days: 8.0
Winter Wheat cv Limerick; [9]
  Vigour (0-9) (9 = Most Vigour) + 14 days: 7.0
Winter Wheat cv Limerick; Table 2.5, winter wheat, fungicide Flutriafol, score 0-9
  Vigour (0-9) + 28 Days: 8.0
Winter Wheat cv Limerick; [17]
  Phytotoxicity (0-9) (0 = Dead) + 14 Days: 7.5
  Phytotoxicity (0-9) (0 = Dead) + 28 Days: 8.0
Winter Wheat cv Limerick; [10]
  Vigour (0-9) (9 = Most Vigour) + 14 days: 7.0
  Vigour (0-9) + 28 Days: 8.0
Soybean
  Nodules Per Plant (V1): 28.2
  Nodulation Score (0-9) (V1): 5.3
  Phyto-Toxicity Score (0-9) (V1): 8.0
  Vigour Score (0-9) (V1): 6.2
  Nodules Per Plant (VC): 33.2
  Nod Score (0-9) (VC): 5.8
Glycine max (Soybean)
  Nodules Per Plant (V1): 34.2
  Nodulation Score (0-9) (V1): 5.9
  Phyto-Toxicity Score (0-9) (V1): 8.0
  Vigour Score (0-9) (V1): 6.7
  Nodules Per Plant (VC): 33.3
  Nod Score (0-9) (VC): 5.8
NAVY BEAN cv Mogex [3]
  Nodules Per Plant (V1): 32.2
  Nodulation Score (0-9) (V1): 5.0
  Phyto-Toxicity Score (0-9) (V1): 7.0
  Vigour Score (0-9) (V1): 7.2
  Nodules Per Plant (VC): 33.2
  Nod Score (0-9) (VC): 5.1
PEA cv Ragtime [4]; [11]
  Nodules Per Plant (V1): 16.8
PEA cv Ragtime [4]; [12]
  Nodulation Score (0-9) (V1): 5.0
  Phyto-Toxicity Score (0-9) (V1): 5.2
  Vigour Score (0-9) (V1): 5.5
PEA cv Ragtime [4]; compost of low pH (5.0-5.5)
  Nodules Per Plant (VC): 17.3
  Nod Score (0-9) (VC): 5.2
PEA cv Ragtime [4]; [13]
  Nodules Per Plant (V1): 16.8
PEA cv Ragtime [4]; [14]
  Nodulation Score (0-9) (V1): 5.0
  Phyto-Toxicity Score (0-9) (V1): 5.2
  Rooting Score (0-9) (V1): 4.2
